Source: patent US10137166B2, “Compositions and methods for affecting movement of contaminants, bodily fluids or other entities, and/or affecting other physiological conditions” (Massachusetts Institute of Technology, priority 2006, dated 2018)

Experiments:
[1] = tested on: intestine (duodenum); experiment: Perforated intestine at the level of the duodenum; leakage of gastric fluid; assay type: in vivo, adult rat
Experimental: An additional volume of 2% peptide solution was injected into the duodenum at the level of the injury. […] In the control cut at the level of the duodenum, the wall of the intestine inverted and gastric fluids continued to leak from the site of injury when left untreated.

[2] = tested on: spinotrapezius muscles; experiment: Muscle trauma, deep cut in the spinotrapezius muscles on the back; hemostasis; assay type: in vivo, rat; conditions: 1% peptide solution applied in the cut
Source text: The spinotrapezius muscles on the back of the rats were exposed and a deep cut was made in the muscle, after which 1% peptide solution (RADA16-I) was applied in the cut. Within 10 seconds, all bleeding had stopped. With the application of iced saline alone, control animals continued to bleed after 20 seconds.

[3] = tested on: liver (lobus sinistras laterialis); experiment: Liver, removal of 1/4 of the lobe, topical treatment of the margin; hemostasis; assay type: in vivo
Experimental: In other experiments ¼ of the lobe in the lower right quadrant of the lobus sinistras laterialis was removed, and the margin was treated with a topical application of 2% peptide (RADA16-I) to the site of injury. Bleeding stopped in less than 10 seconds.

[4] = tested on: branch of the superior sagittal sinus in the brains of rats and hamsters; experiment: Transection of a branch of the superior sagittal sinus in the brain; hemostasis assessed visually from time-stamped video; assay type: in vivo
Experimental: Animals were anesthetized with an i.p. injection of ketamine (80 mg/kg) and xylazine (8 mg/kg). All surgical procedures were conducted under an operating microscope. Twenty-two animals, including 10 adult hamsters and 12 young adult female Spraque-Dawley rats (200-250 g), were treated with either iced saline or 20 μl of a 1% peptide solution at the site of the sinus branch transection. The material was prepared by dissolving RADA 16-1 (n-RADARADARADARADA-c; SEQ ID NO: 1) peptide in sterile water, and the peptide-containing solution was applied to the injured tissue with a 31 gauge needle attached to a 2 cc syringe.
The experiment was videotaped with a time stamp and was replayed one frame at a time to evaluate the length of time required for the peptide solution to form a gel, which effectively impeded bleeding. Hemostasis was assessed visually, and “complete hemostasis” was defined as the complete lack of movement of blood from the wound site.
Durations were measured from the start of application of peptide solution to the completion of hemostasis after transection of the veins leading to the sinus in the brains of adult rats. […] In the saline controls, cessation of bleeding was never achieved. The saline control experiment was terminated at the same time point in order to prevent the animals from bleeding to death.
A total of 22 rats and 64 hamsters have been subjected to experiments in which peptide-containing solutions effectively achieved hemostasis within 10 seconds following application to a site intracranial bleeding.

[5] = tested on: liver (lobus sinister lateralis); experiment: Liver, rostral to caudal cut of the lobus sinister lateralis (relatively low pressure vessel); hemostasis; assay type: in vivo, adult rat; conditions: 1% peptide solution, topically and in the cut
Source text: Profuse bleeding ensued. A 1% peptide solution (RADA16-1) was applied to the cut and in its vicinity using a 27 gauge needle and 4 cc syringe. All bleeding stopped within 10 seconds. A series of pictures was obtained. […] After treating the site with 1% peptide solution (applied topically and in the cut), all bleeding stopped within 10 seconds. A clear area was observed between the two halves of the lobus sinister lateralis. This procedure was repeated several times with the same result.

[6] = tested on: femoral artery; experiment: Femoral artery transection; hemostasis; assay type: in vivo, adult rats
Experimental: The sciatic nerve and the adjacent femoral artery were exposed in adult rats, and the femoral artery was transected. Twelve rats were treated by application of 20 μl of a 1% solution of RADA 16-I peptide to the site of transection using a glass pipette attached to a syringe body, while controls were treated by applying cold saline to the site of transection. […] The saline control cases continued to bleed until the experiment was terminated at 110 seconds. […] A series of pictures was taken in an adult rat in which the femoral artery was transected. In the picture taken first, the sciatic nerve and the femoral artery are exposed. […] The assembled material can be suctioned off the site easily if desired.
In the saline controls, hemostasis was never reached.

[7] = tested on: superior sagittal sinus; experiment: Complete transection of the superior sagittal sinus; hemostasis; assay type: in vivo; conditions: control animals still bleeding after 20 seconds
Source text: A higher concentration of peptide (e.g., approximately 3%-4%) was used in the latter experiment in order to achieve hemostasis. The three saline control cases continued to bleed after 20 seconds.

[8] = tested on: skin wounds; experiment: 4 mm punch biopsy healing test of skin and subcutaneous tissue; assay type: in vivo; conditions: single application
Experimental: The regions from which the biopsies were taken were either treated by a single application of self-assembling peptide (RADA16-I) solution or were left untreated. The wounds were left unbandaged. A series of pictures of a 4 mm punch biopsy healing test in which injured animals were treated with the self assembling peptide and compared to matching cases with no treatment illustrates the results. The wounds were photographed on day 0, day 1, day 4, and day 7. […] Treatment with the peptide appeared to speed healing by as much as 5 days in some cases.

[9] = tested on: liver and a major branch of the portal vein; experiment: Liver, transverse cut transecting a major branch of the portal vein (higher pressure); hemostasis; assay type: in vivo
Experimental: A series of pictures illustrate the experiment. […] The cut was treated with 4% peptide solution applied topically and in the cut. All bleeding stopped within 10 seconds. […] Thus, application of 4% peptide solution brings about complete hemostasis in a high pressure bleeding environment in less than 10 seconds. […] This procedure was repeated several times with the same result.

[10] = tested on: muscle of the hind limb; experiment: Hind limb muscle wounds (porteocaudalis and musculus tibialis cranialis); hemostasis; assay type: in vivo
Source text: However when an artery or vein was transected 2% or higher material was needed to bring about hemostasis. With the application of iced saline alone, control animals continued to bleed after 20 seconds.

[11] = control cut treated 15 minutes after the injury

In the case of n-RADARADARADARADA-c [RADA16-I], the “leakage of gastric fluids after treatment of the site” value ([1]; 2% peptide solution) was “all leakage of gastric fluids from the intestine stopped”, the “leakage after additional volume injected into the duodenum” value ([1]; 2% peptide solution, duration of the procedure) was “prevented all leakage from the intestine for one hour” and the intestinal wall inversion [1, 11] was “stopped the progression of the intestinal wall inversion”. The “leakage when treated after the injury” value [1, 11] was “stopped all leakage from this injury site”, the “time until all bleeding had stopped” value [2] was no more than 10 s and the “hemostasis at the margin after the peptide was removed” value ([3]; 2% peptide, removed one minute later) was “complete hemostasis was achieved”. For the same substance, the “time until bleeding stopped” value ([3]; topical 2% peptide) was “less than 10 seconds”, the “time to complete hemostasis after application of the peptide solution” value ([4]; 20 μl of a 1% peptide solution, rats and hamsters, all cases) was no more than 10 s and the “hemostasis in picture series” value ([4]; adult rat, five seconds after the peptide solution was applied) was “Complete hemostasis was achieved”. The “average duration from start of application to completion of hemostasis” value ([4]; adult rats, transection of the veins leading to the sinus) was 8.3 s, the “time until all bleeding stopped” value [5] was no more than 10 s and the time to hemostasis ([6]; 20 μl of a 1% solution, all treated cases) was “less than 10 seconds”. The “hemostasis in picture series” value ([6]; adult rat, after about five seconds) was “complete hemostasis was observed”, the “hemostasis after replacement of cold saline with the peptide solution” value ([6]; control animals) was “almost immediate achievement of complete hemostasis” and the “time complete hemostasis was maintained” value ([6]; duration of the test) was no less than 1 h. For the same substance, the “hemostasis after iced saline was removed and peptide solution applied” value [7] was “complete hemostasis almost immediately”, the “wound healing versus untreated” value ([8]; contraction of the wound site as early as day 1) was “healed much faster” and the “speeding of healing versus no treatment” value ([8]; some cases) was no more than 5 days. For the same substance, the hemostasis ([9]; 1% solution) was “partial cessation of bleeding”, the hemostasis ([9]; 2% or 3% peptide solution) was “complete hemostasis was also achieved” and the “time until all bleeding stopped” value ([9]; 4% peptide solution, topically and in the cut) was no more than 10 s. For the same substance, the “bleeding at later time” value ([9]; 4% peptide solution, ten minutes later, after physical stress) was “still no bleeding”, the “hemostasis after excess peptide structure was wiped away” value ([9]; 30 seconds after treatment) was “hemostasis was maintained” and the “hemostasis in limb wounds” value ([10]; between 1% to 100% peptide) was “hemostasis was achieved in all cases”. The “material concentration needed to bring about hemostasis” value ([10]; when an artery or vein was transected) was no less than 2%.
